Experimental data reported in US9464084B2, “P2X7 modulators” (Janssen Pharmaceutica NV, priority 2013, dated 2016).

Tests used:
[1] = target: rat P2X7 (Rattus norvegicus (Rat), UniProt Q64663); experiment: Ca2+ flux (FLIPR) in 1321N1 cells expressing recombinant rat P2X7 channel; assay type: cell-based; conditions: 250 μM BzATP;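 note: Calcium-4 dye fluorescence change read 180 s after agonist addition, following 30 min cell preincubation with test compound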
[2] = target: T1, P2X7 (Homo sapiens (Human), UniProt Q99572); experiment: P2X7 antagonism in human PBMCs (LPS + Bz-ATP induced IL-1β release, ELISA); assay type: cell-based; conditions: LPS 30 ng/ml, Bz-ATP 0.5 mM; for PBMC 10 μM (% control): compound 10 μM; for PBMC 1 μM (% control): compound 1 μM;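 for all read-outs here: PBMCs from donor human blood, with a further 1.5 h incubation of the cells in the assay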
T1 sequence (Q99572 whole entry): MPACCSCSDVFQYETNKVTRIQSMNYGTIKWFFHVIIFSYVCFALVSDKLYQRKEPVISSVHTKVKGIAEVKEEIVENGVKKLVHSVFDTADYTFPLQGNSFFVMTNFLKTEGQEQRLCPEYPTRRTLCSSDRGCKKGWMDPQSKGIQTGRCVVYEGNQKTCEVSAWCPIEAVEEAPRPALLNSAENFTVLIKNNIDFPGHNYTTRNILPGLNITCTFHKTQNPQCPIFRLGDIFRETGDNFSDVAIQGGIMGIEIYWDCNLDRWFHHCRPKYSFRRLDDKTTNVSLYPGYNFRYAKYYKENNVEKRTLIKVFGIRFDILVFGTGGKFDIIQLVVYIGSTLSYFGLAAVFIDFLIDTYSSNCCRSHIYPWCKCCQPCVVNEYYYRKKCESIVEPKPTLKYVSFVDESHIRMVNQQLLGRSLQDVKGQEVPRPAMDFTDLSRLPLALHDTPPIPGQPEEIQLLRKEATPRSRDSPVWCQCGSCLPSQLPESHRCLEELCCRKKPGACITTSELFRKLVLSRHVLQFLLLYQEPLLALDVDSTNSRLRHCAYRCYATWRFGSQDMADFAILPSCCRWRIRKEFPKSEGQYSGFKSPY

[3] = target: T1, P2X7; experiment: Ca2+ flux (FLIPR) in 1321N1 cells expressing recombinant human P2X7 channel; assay type: cell-based; conditions: 250 μM BzATP;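 note: Calcium-4 dye-loaded cells exposed to compound for 30 min before agonist addition, fluorescence change read 180 s after agonist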
Description: Cells were seeded at a density of 25000 cells/well (96-well clear bottom black walled plates) in 100 μl volume/well. On the day of the experiment, cell plates were washed with assay buffer, containing (in mM): 130 NaCl, 2 KCl, 1 CaCl2, 1 MgCl2, 10 HEPES, 5 glucose; pH 7.40 and 300 mOs. After the wash, cells were loaded with the Calcium-4 dye (Molecular Device) and incubated in the dark for 60 minutes. Test compounds were prepared at 250× the test concentration in neat DMSO. Intermediate 96-well compound plates were prepared by transferring 1.2 μL of the compound into 300 μL of assay buffer. A further 3× dilution occurred when transferring 50 μL/well of the compound plate to 100 μL/well in the cell plate. Cells were incubated with test compounds and dye for 30 minutes. […] The fluorescence change was measured 180 seconds after adding the agonist.

[4] = target: T1, P2X7; experiment: Radioligand binding, tritiated A-804598, human P2X7-1321N1 cell membranes; conditions: 1 hour at 4° C.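 Note: ki obtained from the binding IC50 after correction for tracer concentration and tracer affinity.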
Description: On the day of the experiment, cell membrane preparations were made according to standard published methods. […] The assay was terminated by filtration (GF/B filters pre-soaked with 0.3% PEI) and washed with washing buffer (Tris-HCl 50 mM). The IC50 generated in the binding assay was corrected for tracer concentration and affinity of the tracer to derive at the affinity (Ki) of the test compounds.

Sequence of rat P2X7 (Q64663 whole entry): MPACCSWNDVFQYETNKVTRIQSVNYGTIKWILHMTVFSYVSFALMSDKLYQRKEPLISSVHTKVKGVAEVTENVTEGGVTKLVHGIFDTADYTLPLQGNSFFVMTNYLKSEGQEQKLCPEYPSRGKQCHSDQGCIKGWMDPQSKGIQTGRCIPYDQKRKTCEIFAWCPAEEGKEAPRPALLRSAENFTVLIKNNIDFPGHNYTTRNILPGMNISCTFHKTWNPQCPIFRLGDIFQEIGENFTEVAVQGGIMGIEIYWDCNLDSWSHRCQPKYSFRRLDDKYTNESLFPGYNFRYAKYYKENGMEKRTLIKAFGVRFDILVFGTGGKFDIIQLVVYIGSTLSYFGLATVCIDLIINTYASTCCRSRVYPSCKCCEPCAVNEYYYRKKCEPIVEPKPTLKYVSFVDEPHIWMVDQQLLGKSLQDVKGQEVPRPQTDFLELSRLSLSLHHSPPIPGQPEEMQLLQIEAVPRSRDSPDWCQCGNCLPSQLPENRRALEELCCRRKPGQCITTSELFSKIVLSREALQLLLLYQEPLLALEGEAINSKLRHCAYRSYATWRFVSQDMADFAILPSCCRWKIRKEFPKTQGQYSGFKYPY

Compound | IC50 [1] [nM] | PBMC 10 μM (% control) [2] [% control] | IC50 [3] [nM] | Ki [4] [nM] | PBMC 1 μM (% control) [2] [% control]
C[C@H]1Cc2c(nnn2-c2ncccn2)CN1C(=O)c1cccc(C(F)(F)F)c1Cl (single isomer, unassigned) [Example 222, (6S*)-5-{[2-Chloro-3-(trifluoromethyl)phenyl]carbonyl}-6-methyl-1-pyrimidin-2-yl-4,5,6,7-tetrahydro-1H-[1,2,3]triazolo[4,5-c]pyridine] | 1 | 11.8 | 1.1 | 25.1 | –
Cc1cccc(-n2nnc3c2CCN(C(=O)c2cccc(C(F)(F)F)c2Cl)[C@H]3C)n1 (single isomer, unassigned) [Example 227, (S*)-(2-chloro-3-(trifluoromethyl)phenyl)(4-methyl-1-(6-methylpyridin-2-yl)-6,7-dihydro-1H-[1,2,3]triazolo[4,5-c]pyridin-5(4H)-yl)methanone] | 10.2 | −0.4 | 7.2 | 20 | –
C[C@@H]1c2nnn(-c3ncccn3)c2CCN1C(=O)c1cccc(C(F)(F)F)c1F (single isomer, unassigned) [Example 271, (R*)-(2-fluoro-3-(trifluoromethyl)phenyl)(4-methyl-1-(pyrimidin-2-yl)-6,7-dihydro-1H-[1,2,3]triazolo[4,5-c]pyridin-5(4H)-yl)methanone] | 11.1 | −3.7 | 3.3 | 5.9 | –
O=C(c1cccc(C(F)(F)F)c1Cl)N1CCc2c(ncn2-c2ccccc2)C1 [Example 2, (2-Chloro-3-(trifluoromethyl)phenyl)(1-phenyl-6,7-dihydro-1H-imidazo[4,5-c]pyridin-5(4H)-yl)methanone] | 1940 | – | 18.4 | 87.1 | 7.9
O=C(c1cccc(Cl)c1Cl)N1CCc2c(ncn2-c2ccccn2)C1 [Example 4, (2,3-Dichlorophenyl)(1-(pyridin-2-yl)-6,7-dihydro-1H-imidazo[4,5-c]pyridin-5(4H)-yl)methanone] | 2570 | −3.7 | 46.5 | 25.1 | –
O=C(c1cccc(C(F)(F)F)c1Cl)N1CCc2c(ncn2-c2ccn[nH]2)C1 [Example 5, (1-(1H-Pyrazol-5-yl)-6,7-dihydro-1H-imidazo[4,5-c]pyridin-5(4H)-yl)(2-chloro-3-(trifluoromethyl)phenyl)methanone] | 324 | 11.6 | 12.4 | 31.6 | –
CC1c2ncn(-c3ccc(F)cc3)c2CCN1C(=O)c1cccc(C(F)(F)F)c1F (stereo not drawn) [Example 20, (2-Fluoro-3-(trifluoromethyl)phenyl)(1-(4-fluorophenyl)-4-methyl-6,7-dihydro-1H-imidazo[4,5-c]pyridin-5(4H)-yl)methanone] | 2370 | 8.6 | 931 | 501 | –
CN(C)C(=O)C1c2ncn(-c3ccccn3)c2CCN1C(=O)c1cccc(C(F)(F)F)c1Cl (stereo not drawn) [Example 34, 5-{[2-Chloro-3-(trifluoromethyl)phenyl]carbonyl}-N,N-dimethyl-1-pyridin-2-yl-4,5,6,7-tetrahydro-1H-imidazo[4,5-c]pyridine-4-carboxamide] | 158 | – | 158 | 631 | 29.8
O=C(C1c2ncn(-c3ccccn3)c2CCN1C(=O)c1cccc(C(F)(F)F)c1Cl)N1CCC1 (stereo not drawn) [Example 35, 4-(Azetidin-1-ylcarbonyl)-5-{[2-chloro-3-(trifluoromethyl)phenyl]carbonyl}-1-pyridin-2-yl-4,5,6,7-tetrahydro-1H-imidazo[4,5-c]pyridine] | 316 | – | 316 | 316 | 31.6
O=C(c1cccc(C(F)(F)F)c1Cl)N1C=Cc2c(ncn2-c2cnccn2)C1 [Example 54, 5-{[2-Chloro-3-(trifluoromethyl)phenyl]carbonyl}-1-pyrazin-2-yl-4,5-dihydro-1H-imidazo[4,5-c]pyridine] | 4110 | – | 198 | 43.7 | 8.6
O=C(c1cccc(Cl)c1Cl)N1CCc2c(nc(C(F)(F)F)n2-c2ccccc2)C1 [Example 58, 5-[(2,3-Dichlorophenyl)carbonyl]-1-phenyl-2-(trifluoromethyl)-4,5,6,7-tetrahydro-1H-imidazo[4,5-c]pyridine] | 766 | −2.0 | 10.7 | 126 | –
O=C(c1cccc(Cl)c1Cl)N1CCc2c(nnn2-c2ccccc2)C1 [Example 62, 5-[(2,3-Dichlorophenyl)carbonyl]-1-phenyl-4,5,6,7-tetrahydro-1H-[1,2,3]triazolo[4,5-c]pyridine] | 4280 | – | 76.2 | 43.7 | 5.2
O=C(c1cccc(C(F)(F)F)c1F)N1CCc2c(nnn2-c2cnccn2)C1 [Example 69, 5-{[2-Fluoro-3-(trifluoromethyl)phenyl]carbonyl}-1-pyrazin-2-yl-4,5,6,7-tetrahydro-1H-[1,2,3]triazolo[4,5-c]pyridine] | 1460 | 6.8 | 106 | 14.1 | –
CC1c2nnn(-c3cnccn3)c2C=CN1C(=O)c1cccc(C(F)(F)F)c1Cl (stereo not drawn) [Example 72, 5-{[2-Chloro-3-(trifluoromethyl)phenyl]carbonyl}-4-methyl-1-pyrazin-2-yl-4,5-dihydro-1H-[1,2,3]triazolo[4,5-c]pyridine] | 169 | – | 4.2 | 29.5 | −5.7

More lines, in order of falling IC50 [1], values ahead:

IC50 [1] [nM] | PBMC 10 μM (% control) [2] [% control] | IC50 [3] [nM] | Ki [4] [nM] | PBMC 1 μM (% control) [2] [% control] | Compound
3270 | – | 111 | 74.1 | 9.7 | CCOC(=O)C1c2ncn(-c3ccccn3)c2CCN1C(=O)c1cccc(Cl)c1Cl (stereo not drawn) [Example 25, Ethyl 5-(2,3-dichlorobenzoyl)-1-(pyridin-2-yl)-4,5,6,7-tetrahydro-1H-imidazo[4,5-c]pyridine-4-carboxylate]
2070 | – | 79.8 | 38 | 34.7 | CCOC(=O)C1c2ncn(-c3cnccn3)c2CCN1C(=O)c1cccc(Cl)c1Cl (stereo not drawn) [Example 29, Ethyl 5-[(2,3-dichlorophenyl)carbonyl]-1-pyrazin-2-yl-4,5,6,7-tetrahydro-1H-imidazo[4,5-c]pyridine-4-carboxylate]
1400 | – | 4.7 | 38.9 | −0.1 | O=C(c1cccc(C(F)(F)F)c1Cl)N1CCc2c(nnn2-c2ccccc2)C1 [Example 61, 5-{[2-Chloro-3-(trifluoromethyl)phenyl]carbonyl}-1-phenyl-4,5,6,7-tetrahydro-1H-[1,2,3]triazolo[4,5-c]pyridine]
527 | 10.2 | 378 | 501 | – | O=C(c1cccc(C(F)(F)F)c1F)N1CCc2c(ncn2-c2ccn[nH]2)C1 [Example 59, 5-{[2-Fluoro-3-(trifluoromethyl)phenyl]carbonyl}-1-(1H-pyrazol-5-yl)-4,5,6,7-tetrahydro-1H-imidazo[4,5-c]pyridine]
501 | – | 63.1 | 100 | 57.7 | O=C(c1cccc(C(F)(F)F)c1Cl)N1CCc2[nH]nnc2C1c1ccccc1 (stereo not drawn) [Example 78, 5-{[2-Chloro-3-(trifluoromethyl)phenyl]carbonyl}-4-phenyl-4,5,6,7-tetrahydro-1H-[1,2,3]triazolo[4,5-c]pyridine]
259 | – | 16.7 | 126 | 11.3 | CCC1c2ncn(-c3cnccn3)c2C=CN1C(=O)c1cccc(C(F)(F)F)c1Cl (stereo not drawn) [Example 55, 5-{[2-Chloro-3-(trifluoromethyl)phenyl]carbonyl}-4-ethyl-1-pyrazin-2-yl-4,5-dihydro-1H-imidazo[4,5-c]pyridine]
184 | 12.9 | 16.9 | 18.2 | – | O=C(c1cccc(C(F)(F)F)c1Cl)N1CCc2c(nnn2-c2ccn[nH]2)C1 [Example 68, 5-{[2-Chloro-3-(trifluoromethyl)phenyl]carbonyl}-1-(1H-pyrazol-5-yl)-4,5,6,7-tetrahydro-1H-[1,2,3]triazolo[4,5-c]pyridine]
107 | – | 156 | 316 | 50.8 | CN(C)CC1c2ncn(-c3ccccn3)c2CCN1C(=O)c1cccc(C(F)(F)F)c1Cl (stereo not drawn) [Example 31, 1-(5-{[2-Chloro-3-(trifluoromethyl)phenyl]carbonyl}-1-pyridin-2-yl-4,5,6,7-tetrahydro-1H-imidazo[4,5-c]pyridin-4-yl)-N,N-dimethylmethanamine]
71 | – | 9.8 | 85.1 | 14.0 | CCOC(=O)C1c2ncn(-c3ccccc3)c2CCN1C(=O)c1cccc(C(F)(F)F)c1Cl (stereo not drawn) [Example 26, Ethyl 5-(2-chloro-3-(trifluoromethyl)benzoyl)-1-phenyl-4,5,6,7-tetrahydro-1H-imidazo[4,5-c]pyridine-4-carboxylate]
34.2 | – | 35 | 91.2 | 2.9 | CCOC(=O)C1c2ncn(-c3ccccn3)c2CCN1C(=O)c1cccc(C(F)(F)F)c1Cl (stereo not drawn) [Example 24, Ethyl 5-(2-chloro-3-(trifluoromethyl)benzoyl)-1-(pyridin-2-yl)-4,5,6,7-tetrahydro-1H-imidazo[4,5-c]pyridine-4-carboxylate]
